Key:
Format in all cases: in vivo
[1] = system: corn; test: Example 22: retest of Example 21 at reduced greenhouse temperatures; settings: Table 22
Protocol: (§1) Containers were filled and compacted with a fumigated silt loam top soil to a depth of about 1.3 cm from the top of the container. A first container was designated as an untreated control, a second container was designated as a herbicide control, and a third container was designated as a herbicide + antidote test container. Each of the containers was seeded with a crop species. A measured amount of herbicide dispersed or dissolved in acetone was applied to a measured quantity of soil. To this same quantity of soil treated with herbicide, there was added a measured amount of antidote dispersed or dissolved in acetone. The quantity of soil treated with the herbicide and antidote was thoroughly mixed to incorporate the herbicide and antidote in the soil uniformly. The seed bed in the third container of soil was covered with the soil treated with the herbicide and antidote and the container was leveled. For each test series, the seed beds of the first and second containers were likewise covered by soil layers. the cover layer of the first container was not treated with herbicide or antidote.
(§2) The containers were then placed on a bench in a greenhouse and sub-irrigated as required for the duration of the test. […] Plant response is measured in terms of percent injury. Antidote efficacy is indicated as the difference in plant injury by the herbicide(s) without the antidote and with the antidote.
(§3) This procedure is the same as Procedure I, but modified in the manner that after incorporation of the chemicals (herbicide and antidote) the containers with the covered seedbed were treated with an initial overhead irrigation equivalent to 0.6 cm rainfall, then subsequently sub-irrigated as required on greenhouse benches.
In this example, tests were conducted as in the preceding Examples 18-20, except here the co-herbicidal component was SUTAN® PLUS, a commercial product comprising as the active herbicidal ingredient the compound butylate (Herbicide No. 10) and an antidote […] (Antidote No. 1). Again, the antidotal compounds herein were Nos. 1, 2, 7, 13 and 15. Procedure II was used.
The experiments in this example were designed as a retest of those described in Example 21 in view of the uncharacteristically poor corn safety and weed control, believed to have resulted from unseasonably high temperatures in the greenhouse. Accordingly, temperatures were reduced for these tests.

[2] = system: corn; test: Example 6, Procedure II: Herbicide No. 1 + alachlor (No. 7) with antidotes
Method in brief: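 Herbicide No. 1 plus alachlor and antidote, each applied in acetone, mixed into silt loam cover soil over seeded corn; untreated and herbicide-only controls included. Given initial overhead irrigation equal to 0.6 cm rainfall, then greenhouse sub-irrigation. Percent injury scored, duplicate averages; efficacy is injury without minus with antidote.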

[3] = system: corn; test: Example 3, Procedure I: antidotes against Herbicide No. 1
Method in brief: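 Herbicide and antidote, each in acetone, mixed into a soil layer covering the seeded corn bed; untreated and herbicide-only controls run alongside. Greenhouse, sub-irrigated, barnyardgrass present; herbicide 4.48 down to 0.56 kg/ha. Percent injury scored; efficacy = injury without minus with antidote.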

[4] = system: velvetleaf (Abutilon theophrasti); test: Example 6, Procedure II: Herbicide No. 1 + alachlor (No. 7) with antidotes
Protocol: as §1, §2, §3
(§4) In the series of greenhouse tests described below, for routine screening purposes the herbicide/antidote compositions were tested in crop/weed combinations involving corn as the crop and either or both of the weeds barnyardgrass (Echinochloa crusgalli), a monocotyledonous weed, and velvetleaf (Abutilon theophrasti), a dicotyledonous weed. In the tables below, these weeds are indicated by the symbols "BYG" and "VL", respectively.
(§5) This example was designed to investigate the antidotal efficacy of a plurality of antidotal compounds against a composition comprising Herbicide No. 1 in combination with Herbicide No. 7 (alachlor). The antidotal compounds used herein were Nos. 1, 2, 7, 13 and 15.
(§6) In this example, Procedure II described above was followed. The data from the tests in this example is shown in Table 6 and represents averages of duplicate replications.

[5] = system: barnyardgrass (Echinochloa crusgalli); test: as above
Protocol: as §1, §2, §3, §4, §5, §6

[6] = system: corn; test: Example 9, Procedure II: Herbicide No. 1 + pretilachlor (No. 13) with antidotes
Protocol: as §1, §2, §3
(§7) In this example the safening effect on a composition comprising Herbicide No. 1 and another leading rice herbicide, i.e., Herbicide No. 13, was investigated using the same antidotes and test procedure described in the preceding example. Herbicide No. 13 is pretilachlor, active ingredient used in the commercial rice herbicides RIFIT®, SOFIT® and SOFIT® SUPER.

[7] = system: velvetleaf (Abutilon theophrasti); test: as above
Protocol: as §1, §2, §3, §4, §7

[8] = system: barnyardgrass (Echinochloa crusgalli); test: as above
Protocol: as §1, §2, §3, §4, §7

[9] = system: corn; test: Example 5, Procedure I: Herbicide No. 1 + alachlor (No. 7) with Antidote Nos. 15 and 16
Method in brief: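 Greenhouse pot test in silt loam; herbicide No. 1 plus alachlor co-herbicide and antidote, each applied in acetone, mixed into cover soil over seeded beds, sub-irrigated. Percent injury scored; antidote efficacy as injury difference without vs with antidote.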

[10] = system: corn; test: Example 13, Procedure II: Herbicide No. 1 + acetochlor (No. 6) with dichloroacetamide antidotes
Method in brief: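 Corn seeded in silt loam, covered with soil into which herbicide No. 1 plus acetochlor and dichloroacetamide antidote (acetone) were incorporated, velvetleaf present. Initial overhead irrigation equivalent to 0.6 cm rainfall, then greenhouse sub-irrigation. Percent injury scored; safening taken as injury difference without versus with antidote.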

[11] = Herbicide No.1 0.56 Kg/ha + SUTAN + 8.96 Kg/ha + antidote 2.24 Kg/ha
[12] = Herbicide No.1 0.56 Kg/ha + SUTAN + 8.96 Kg/ha + antidote 8.96 Kg/ha
[13] = Herbicide No.1 1.12 Kg/ha + SUTAN + 8.96 Kg/ha + antidote 2.24 Kg/ha
[14] = Herbicide No.1 1.12 Kg/ha + SUTAN + 8.96 Kg/ha + antidote 8.96 Kg/ha
[15] = Herbicide No.1 0.14 + No.7 4.48 kg/ha + antidote 2.24 kg/ha
[16] = Herbicide No.1 0.14 + No.7 4.48 kg/ha + antidote 8.96 kg/ha
[17] = Herbicide No.1 0.56 + No.7 4.48 kg/ha + antidote 2.24 kg/ha
[18] = Herbicide No.1 0.56 + No.7 4.48 kg/ha + antidote 8.96 kg/ha
[19] = Herbicide No.1 0.14 kg/ha + Herbicide No.13 2.24 kg/ha, antidote rate 2.24 kg/ha
[20] = Herbicide No.1 0.14 kg/ha + Herbicide No.13 2.24 kg/ha, antidote rate 8.96 kg/ha
[21] = Herbicide No.1 0.56 kg/ha + Herbicide No.13 2.24 kg/ha, antidote rate 2.24 kg/ha
[22] = Herbicide No.1 0.56 kg/ha + Herbicide No.13 2.24 kg/ha, antidote rate 8.96 kg/ha
[23] = Herbicide No.1 0.56 kg/ha + Herbicide No.6 4.48 kg/ha, antidote rate 0.56 kg/ha
[24] = Herbicide No.1 0.56 kg/ha + Herbicide No.6 4.48 kg/ha, antidote rate 2.24 kg/ha
[25] = Herbicide No.6 4.48 kg/ha, no Herbicide No.1, antidote rate 0.56 kg/ha
[26] = Herbicide No.6 4.48 kg/ha, no Herbicide No.1, antidote rate 2.24 kg/ha

CC1(C)OC(c2ccco2)CN1C(=O)C(Cl)Cl (stereo not shown) [compound 15]
% Injury Corn [1, 11]: 45%
% Injury Corn [1, 12]: 55%
% Injury Corn [1, 13]: 60%
% Injury Corn [1, 14]: 45%
% Injury Corn [2, 15]: 20%
% Injury Corn [2, 16]: 10%
% Injury Corn [2, 17]: 15%
% Injury Corn [2, 18]: 15%
% Injury Corn ([3]; Herb. No. 1 0.56 kg/ha + antidote 0.56 kg/ha): 0%
% Injury Corn ([3]; Herb. No. 1 0.56 kg/ha + antidote 2.24 kg/ha): 0%
% Injury Corn ([3]; Herb. No. 1 0.56 kg/ha + antidote 8.96 kg/ha): 0%
% Injury Corn ([3]; Herb. No. 1 1.12 kg/ha + antidote 0.56 kg/ha): 0%
% Injury Corn ([3]; Herb. No. 1 1.12 kg/ha + antidote 2.24 kg/ha): 0%
% Injury Corn ([3]; Herb. No. 1 1.12 kg/ha + antidote 8.96 kg/ha): 0%
% Injury Corn ([3]; Herb. No. 1 2.24 kg/ha + antidote 0.56 kg/ha): 15%
% Injury Corn ([3]; Herb. No. 1 2.24 kg/ha + antidote 2.24 kg/ha): 0%
% Injury Corn ([3]; Herb. No. 1 2.24 kg/ha + antidote 8.96 kg/ha): 0%
% Injury Corn ([3]; Herb. No. 1 4.48 kg/ha + antidote 0.56 kg/ha): 0%
% Injury Corn ([3]; Herb. No. 1 4.48 kg/ha + antidote 2.24 kg/ha): 5%
% Injury Corn ([3]; Herb. No. 1 4.48 kg/ha + antidote 8.96 kg/ha): 0%
% Injury Corn ([3]; antidote 8.96 kg/ha alone, no herbicide): 0%
% Injury VL [4, 15]: 80%
% Injury VL [4, 16]: 65%
% Injury VL [4, 17]: 90%
% Injury VL [4, 18]: 95%
% Injury BYG [5, 15]: 100%
% Injury BYG [5, 16]: 100%
% Injury BYG [5, 17]: 100%
% Injury BYG [5, 18]: 100%
% Injury Corn [6, 19]: 5%
% Injury Corn [6, 20]: 0%
% Injury Corn [6, 21]: 15%
% Injury Corn [6, 22]: 5%
% Injury VL [7, 19]: 60%
% Injury VL [7, 20]: 90%
% Injury VL [7, 21]: 85%
% Injury VL [7, 22]: 75%
% Injury BYG [8, 19]: 100%
% Injury BYG [8, 20]: 100%
% Injury BYG [8, 21]: 99%
% Injury BYG [8, 22]: 100%
% Injury Corn ([9]; Herbicide No.1 4.48 + No.7 0.56 kg/ha + antidote 0.56 kg/ha): 23%
% Injury Corn ([9]; Herbicide No.1 4.48 + No.7 0.56 kg/ha + antidote 2.24 kg/ha): 40%
% Injury Corn ([9]; Herbicide No.1 4.48 + No.7 2.24 kg/ha + antidote 0.56 kg/ha): 30%
% Injury Corn ([9]; Herbicide No.1 4.48 + No.7 2.24 kg/ha + antidote 2.24 kg/ha): 23%
% Injury Corn ([9]; Herbicide No.1 6.72 + No.7 0.56 kg/ha + antidote 0.56 kg/ha): 25%
% Injury Corn ([9]; Herbicide No.1 6.72 + No.7 0.56 kg/ha + antidote 2.24 kg/ha): 25%
% Injury Corn ([9]; Herbicide No.1 6.72 + No.7 2.24 kg/ha + antidote 0.56 kg/ha): 45%
% Injury Corn ([9]; Herbicide No.1 6.72 + No.7 2.24 kg/ha + antidote 2.24 kg/ha): 50%
% Injury Corn [10, 23]: 5%
% Injury Corn [10, 24]: 15%
% Injury Corn [10, 25]: 5%
% Injury Corn [10, 26]: 15%

C=CCN(CC=C)C(=O)C(Cl)Cl [compound 1]
% Injury Corn [1, 11]: 45%
% Injury Corn [1, 12]: 60%
% Injury Corn [1, 13]: 50%
% Injury Corn [1, 14]: 55%
% Injury Corn [2, 15]: 10%
% Injury Corn [2, 16]: 0%
% Injury Corn [2, 17]: 15%
% Injury Corn [2, 18]: 5%
% Injury VL [4, 15]: 75%
% Injury VL [4, 16]: 80%
% Injury VL [4, 17]: 80%
% Injury VL [4, 18]: 85%
% Injury BYG [5, 15]: 100%
% Injury BYG [5, 16]: 100%
% Injury BYG [5, 17]: 100%
% Injury BYG [5, 18]: 100%
% Injury Corn [6, 19]: 0%
% Injury Corn [6, 20]: 0%
% Injury Corn [6, 21]: 5%
% Injury Corn [6, 22]: 10%
% Injury VL [7, 19]: 75%
% Injury VL [7, 20]: 75%
% Injury VL [7, 21]: 85%
% Injury VL [7, 22]: 85%
% Injury BYG [8, 19]: 100%
% Injury BYG [8, 20]: 100%
% Injury BYG [8, 21]: 100%
% Injury BYG [8, 22]: 100%
% Injury Corn [10, 23]: 5%
% Injury Corn [10, 24]: 10%
% Injury Corn [10, 25]: 20%
% Injury Corn [10, 26]: 10%

From EP0603240B1, “SAFENING HERBICIDAL PYRAZOLYLSULFONYLUREAS” (priority 1991, dated 1993)
